Assay [1] relates to HORVS. Kind of assay: Different soil pH, PE application, crop selectivity, greenhouse (Table 8). Format: in vivo, Hordeum vulgare, summer barley. As for the experimental part: (§1) In the standard design of the test, seeds of various broad-leaved weed and weed grass biotypes (origins) were sown in a 8-13 cm diameter pot filled with natural soil of a standard field soil (loamy silt; non-sterile) and covered with a covering soil layer of about 1 cm. The pots were then cultivated in a greenhouse (12-16 h of light, temperature day 20-22° C., night 15-18° C.) until the time of application. The pots were treated on a laboratory track sprayer with spray liquors comprising the compositions according to the invention, mixtures of the prior art or components used individually. Application of the active compounds or active compound combinations formulated as WG, WP, EC or otherwise was carried out at the appropriate growth stages of the plants. The application rate for the spray application was 100-600 l of water/ha. After the treatment, the plants were returned to the greenhouses.
(§2) About 3 weeks after the application, the soil action or/and foliar action was assessed visually according to a scale of 0-100% in comparison to an untreated comparative group: 0%=no noticeable effect compared to the untreated comparative group; 100%=full effect compared to the untreated comparative group.
(§3) (notes: the term “seeds” also includes vegetative propagation forms such as, for example, rhizome pieces; abbreviations used: h light=hours of illumination, g of AS/ha=gram of active substance per hectare, l/ha=liter per hectare, S=sensitive, R=resistant) • 1. Pre-emergence action against weeds: seeds of various broad-leaved weed and weed grass biotypes (origins) were sown in a 8-13 cm diameter pot filled with natural soil of a standard field soil (loamy silt; non-sterile) and covered with a covering soil layer of about 1 cm. The pots were then cultivated in a greenhouse (12-16 h of light, temperature day 20-22° C., night 15-18° C.) until the time of application. The pots were treated at the BBCH stage 00-10 of the seeds/plants on a laboratory track sprayer with spray liquors comprising the compositions according to the invention, mixtures or components used individually, as WG, WP, EC or other formulations. The application rate for the spray application was 100-600 l of water/ha. After the treatment, the plants were returned to the greenhouses and, when required, treated with fertilizer and watered. • 2. Post-emergence action against weeds: seeds of various broad-leaved weed and weed grass biotypes (origins) were sown in a 8-13 cm diameter pot filled with natural soil of a standard field soil (loamy silt; non-sterile) and covered with a covering soil layer of about 1 cm. The pots were then cultivated in a greenhouse (12-16 h of light, temperature day 20-22° C., night 15-18° C.) until the time of application. The pots were treated at various BBCH stages between 11-25 of the seeds/plants, i.e. generally between two to three weeks after the start of the cultivation, on a laboratory track sprayer with spray liquors comprising the compositions according to the invention, mixtures or components used individually, as WG, WP, EC or other formulations. The application rate for the spray application was 100-600 l of water/ha. After the treatment, the plants were returned to the greenhouses and, when required, treated with fertilizer and watered. • 3. Pre-emergence action against weeds with and without incorporation of active compound: seeds of various broad-leaved weed and weed grass biotypes (origins) were sown in a 8-13 cm diameter pot filled with natural soil of a standard field soil (loamy silt; non-sterile). […]

Assay [2] deals with STEME. The experiment in a line: Resistant biotypes, PE application, greenhouse (Table 6). Format: in vivo, Stellaria media. As to conditions: g of AS/ha: (A) 90, (B) 300, (C) 140, (A)+(B)+(C) 120 + 600 + 140, iodosulfuron 10; for activity STEME resistant: resistant biotype; for activity STEME sensitive: sensitive biotype. As for the experimental part: as §1, §2, §3
Assay [3] has as its system HORVS. The experiment in a line: PO application, crop selectivity, greenhouse (Table 2). Type of assay: in vivo, Hordeum vulgare, summer barley. The note with it: g of AS/ha: (A) 120, (B) 1200, (C) 140, (A)+(B)+(C) 120 + 1200 + 140, visual, about 3 weeks after application. As to the method:
as §1, §2
(§4) (notes: the term “seeds” also includes vegetative propagation forms such as, for example, rhizome pieces; abbreviations used: h light=hours of illumination, g of AS/ha=gram of active substance per hectare, l/ha=liter per hectare, S=sensitive, R=resistant) • 1. Pre-emergence action against weeds: seeds of various broad-leaved weed and weed grass biotypes (origins) were sown in a 8-13 cm diameter pot filled with natural soil of a standard field soil (loamy silt; non-sterile) and covered with a covering soil layer of about 1 cm. The pots were then cultivated in a greenhouse (12-16 h of light, temperature day 20-22° C., night 15-18° C.) until the time of application. […]

The test system of another assay is TRZAW. Kind of assay: Different soil pH, PE application, crop selectivity, greenhouse (Table 8). Format: in vivo, Triticum aestivum, winter wheat. As to the method: as §1, §2, §3
Assay [4] deals with HORVS. The experiment in a line: PE application with different irrigation, crop selectivity, greenhouse (Table 4). Type of assay: in vivo, Hordeum vulgare, summer barley. The note with it: g of AS/ha: (A) 90, (B) 300, (C) 140, (A)+(B)+(C) 90 + 300 + 140. As to the method:
as §1, §2, §3

Assay [5] has as its system HORVS. The experiment in a line: PE application vs pre-sowing application, crop selectivity, greenhouse (Table 3). Format: in vivo, Hordeum vulgare, summer barley. As to conditions: g of AS/ha: (A) 90, (B) 300, (C) 140, (A)+(B)+(C) 90 + 300 + 140. As to the method:
as §1, §2, §3

Assay [6] concerns HORVS. Kind of assay: Different sowing depths, PE application, crop selectivity, greenhouse (Table 7). Type of assay: in vivo, Hordeum vulgare, summer barley. The note with it: g of AS/ha: (A) 90, (B) 300, (C) 140, (A)+(B)+(C) 90 + 300 + 140. As for the experimental part:
as §1, §2, §3

The subject of assay [7] is STEME. Kind of assay: Activity with different soil types, greenhouse (Table 5). Format: in vivo, Stellaria media. The note with it: g of AS/ha: (A) 90, (B) 300, (C) 140, (A)+(B)+(C) 90 + 300 + 140. As to the method:
as §1, §2, §3

The test system of assay [8] is STEME. The experiment in a line: PE soil application vs incorporation into the soil, greenhouse (Table 1). Type of assay: in vivo, Stellaria media. The note with it: g of AS/ha: (A) 90, (B) 300, (C) 70, (A)+(B)+(C) 90 + 300 + 70, visual, about 3 weeks after application. As for the experimental part: as §1, §2, §3
The subject of assay [9] is HORVS. The experiment in a line: Activity with different soil types, crop selectivity, greenhouse (Table 5). Format: in vivo, Hordeum vulgare, summer barley. As to conditions: g of AS/ha: (A) 90, (B) 300, (C) 140, (A)+(B)+(C) 90 + 300 + 140. As for the experimental part:
as §1, §2, §3

Assay [10] deals with MATCH. The experiment in a line: PE application with different irrigation, greenhouse (Table 4). Format: in vivo, Matricaria chamomilla. As to conditions: g of AS/ha: (A) 90, (B) 300, (C) 140, (A)+(B)+(C) 90 + 300 + 140. As to the method: as §1, §2, §3
Another assay concerns VIOAR. Kind of assay: Activity with different soil types, greenhouse (Table 5). Type of assay: in vivo, Viola arvensis. As to conditions: g of AS/ha: (A) 90, (B) 300, (C) 140, (A)+(B)+(C) 90 + 300 + 140. As to the method:
as §1, §2, §3

Assay [11] relates to MATCH. The experiment in a line: Different soil pH, PE application, greenhouse (Table 8). Format: in vivo, Matricaria chamomilla. As for the experimental part: as §1, §2, §3
Another assay deals with POAAN. The experiment in a line: PO application, greenhouse (Table 2). Format: in vivo, Poa annua. As to conditions: g of AS/ha: (A) 120, (B) 1200, (C) 140, (A)+(B)+(C) 120 + 1200 + 140, visual, about 3 weeks after application. As to the method: as §1, §2, §4
For another assay, the system named is AVEFA. Kind of assay: PE application with different irrigation, greenhouse (Table 4). The note with it: g of AS/ha: (A) 90, (B) 300, (C) 140, (A)+(B)+(C) 90 + 300 + 140. Type of assay: in vivo, Avena fatua. As to the method: as §1, §2, §3
The subject of assay [12] is HORVS. Kind of assay: PE soil application vs incorporation into the soil, crop selectivity, greenhouse (Table 1). Format: in vivo, Hordeum vulgare, summer barley. As to conditions: g of AS/ha: (A) 90, (B) 300, (C) 70, (A)+(B)+(C) 90 + 300 + 70, visual, about 3 weeks after application. As to the method:
as §1, §2, §3

Setting [13] is: soil pH 7.4, g of AS/ha: (A) 90, (B) 300, (C) 140, (A)+(B)+(C) 90 + 300 + 140.
Setting [14] is: soil pH 8.4, g of AS/ha: (A) 90, (B) 300, (C) 140, (A)+(B)+(C) 90 + 300 + 140.
Where [15] appears, read: IU soil (loamy silt standard field soil).
The mark [16] stands for this setting: IU/EC73 soil (heavy soil, higher organic substance).

SMILES strings stand for the structures.

For the compound `CC(C)N(C(=O)COc1nnc(C(F)(F)F)s1)c1ccc(F)cc1` [(A) flufenacet, N-(4-fluorophenyl)-N-(1-methylethyl)-2-[[5-(trifluoromethyl)-1,3,4-thiadiazol-2-yl]oxy]acetamide], in the assay on HORVS [1] (setting [13]), the “activity HORVS pH 7.4 (crop plant)” value is 10%. Besides, the “activity HORVS pH 8.4 (crop plant)” value in the assay with HORVS [1] (setting [14]) came out at 10%. Moreover, the “activity STEME resistant” value in the assay with STEME [2] turned out to be 0%. Further, the “activity STEME sensitive” value in the assay on STEME [2] is listed as 0%. Moreover, the “activity HORVS (crop plant)” value came to 40% with HORVS [3]; 95% with HORVS [4] (irrigation from above); 80% in the assay with HORVS [4] (irrigation from below); 20% in the assay with HORVS [5] (PE application); 40% with HORVS [5] (application 7 days prior to sowing); 20% in the assay on HORVS [12] (PE application). Besides, the “activity HORVS (crop plant)” value in the assay on HORVS [12] (incorporation into the soil) was found to be 60%. In addition, the “activity TRZAW pH 7.4 (crop plant)” value in the assay with TRZAW (setting [13]) is recorded as 0%. In the assay on TRZAW (setting [14]), the “activity TRZAW pH 8.4 (crop plant)” value worked out at 20%. Moreover, the “activity HORVS 5 mm (crop plant)” value with HORVS [6] (sowing depth 5 mm) was 30%. Besides, the “activity HORVS 20 mm (crop plant)” value with HORVS [6] (sowing depth 20 mm) turned out to be 20%. Besides, the “activity STEME IU soil” value with STEME [7] (setting [15]) is on record as 0%. The “activity STEME IU/EC73 soil” value in the assay on STEME [7] (setting [16]) came out at 0%. In addition, the “activity STEME” value is recorded as 0% in the assay with STEME [8] (PE application) and 20% in the assay on STEME [8] (incorporation into the soil). Moreover, the “activity HORVS IU soil (crop plant)” value with HORVS [9] (setting [15]) was 10%. Further, in the assay on HORVS [9] (setting [16]), the “activity HORVS IU/EC73 soil (crop plant)” value turned out to be 0%. Further, the entries for the “activity MATCH” value in the assay on MATCH [10] (irrigation from above) and in the assay with MATCH [10] (irrigation from below) were 49% and 15%, respectively. For the same compound, the “activity VIOAR IU soil” value in the assay on VIOAR (setting [15]) is listed as 0%. For the same compound, in the assay with VIOAR (setting [16]), the “activity V18 VIOAR IU/EC73 soil” value is 0%. Besides, the “activity MATCH pH 7.4” value in the assay with MATCH [11] (setting [13]) came to 5%. Also, the “activity MATCH pH 8.4” value in the assay on MATCH [11] (setting [14]) stood at 0%. Further, the “activity POAAN” value in the assay with POAAN is recorded as 60%. For the same compound, the “activity AVEFA” value in the assay on AVEFA (irrigation from above) amounted to 92%; in the assay with AVEFA (irrigation from below) it was 63%.

On to `COc1nc(C)nc(NC(=O)NS(=O)(=O)c2cc(I)ccc2C(=O)O)n1` [iodosulfuron], for which, in the assay on STEME [2], the “activity STEME resistant” value is reported as 40% and the “activity STEME sensitive” value worked out at 90%.
